In the experiment the test system is RSV. In words: Potency range (EC50 values) of C series compounds against RSV. It counts as cell-based. The following applies: human respiratory syncytial virus. On the procedure: Two-fold serial dilutions of hit candidates were prepared in 384-well plates in three replicates each using the Nimbus liquid handler. BEAS-2B cells (8×10^3/well) were then plated as before, serial dilutions transferred using the pin-tool, and cells infected with recombinant virus strains expressing distinct luciferase reporter proteins or left uninfected for cell viability assessment. Reporter signals were recorded as outlined above. To determine cell viability, PrestoBlue substrate (life technologies) was added after 40-hour incubation of cells at 37° C. (5 μl/well) and top-read fluorescence (excitation 560 nm; emission 590 nm; instrument gain 85) recorded after 45 minutes of incubation at 37° C. using the H1 synergy plate reader. Four-parameter variable slope regression modeling was applied to determine 50% active (EC50) and toxic (CC50) concentrations.

EC50 data for 59 molecules are collected here from patent publication US11084796B2, “Heterocyclic derivatives for the treatment of RSV” (GEORGIA STATE UNIVERSITY RESEARCH FOUNDATION, INC., priority 2016, dated 2021).

For `O=C(CN1C(=O)C(C(=O)N2CCCCC2)Sc2cc(Cl)ccc21)NCC1CCCCC1` (centres unmarked) [AVG-217], the EC50 (as a rule, the concentration that produces a half-maximal response) lay in the range of 1 to 10 µM.
The result for `COc1cccc2c1SC(C(=O)N1CCCCC1)C(=O)N2CC(=O)NC1CCCCC1` (centres unmarked) [AVG-145] reads 1 to 10 µM.
As for `O=C(CN1C(=O)C(C(=O)N2CCCCC2)Sc2c(Cl)cccc21)NC1CCCCC1` (centres unmarked) [AVG-061], the EC50 lay within 1 to 10 µM.
Turning to `Cc1ccc2c(c1)SC(C(=O)N1CCCCC1)C(=O)N2CC(=O)NC1CCCCC1` (centres unmarked) [AVG-151], the EC50 fell in the range of 10 to 20 µM.
The result for `CN1CCC(NC(=O)C2Sc3ccccc3N(CC(=O)NC3CCCCC3)C2=O)CC1` (centres unmarked) [AVG-085] reads over 20 µM; that for `O=C(CN1C(=O)C(C(=O)N2CCCCC2)Sc2ccccc21)N1CCCCC1` (centres unmarked) [AVG-060], over 20 µM; that for `COc1ccc2c(c1)N(CC(=O)NC1CCCCC1)C(=O)C(C(=O)N1CCCCC1)S2` (centres unmarked) [AVG-147], 10 to 20 µM.
For the molecule `O=C(CN1C(=O)C(C(=O)NC2CCNCC2)Sc2ccccc21)NC1CCCCC1` (centres unmarked) [AVG-084], the EC50 is over 20 µM.
For the molecule `O=C(CN1C(=O)C(C(=O)N2CCCCC2)Sc2ccccc21)Nc1ccncc1` (centres unmarked) [AVG-224], the EC50 fell in the range of 10 to 20 µM.
The result for `CC(C)(C)NC(=O)C1Sc2ccccc2N(CC(=O)NC2CCCCC2)C1=O` (centres unmarked) [AVG-141] reads 1 to 10 µM; that for `CC(C)c1ccc2c(c1)SC(C(=O)N1CCCCC1)C(=O)N2CC(=O)NC1CCCCC1` (centres unmarked) [AVG-153], 1 to 10 µM.
Then `CN(C(=O)CN1C(=O)C(C(=O)N2CCCCC2)Sc2ccccc21)C1CCCCC1` (centres unmarked) [AVG-059], with over 20 µM; and `CC(NC(=O)C1Sc2ccccc2N(CC(=O)NC2CCCCC2)C1=O)c1ccccc1` (centres unmarked) [AVG-143], with over 20 µM.
The result for `CCCCNC(=O)C1Sc2ccccc2N(CC(=O)NC2CCCCC2)C1=O` (centres unmarked) [AVG-086] reads 10 to 20 µM; that for `CC1(C)CCC(NC(=O)CN2C(=O)C(C(=O)N3CCCCC3)Sc3ccccc32)CC1` (centres unmarked) [AVG-050], 1 to 10 µM; that for `O=C(CN1C(=O)C(C(=O)N2CCCCC2)Sc2cc(F)ccc21)NC1CCCCC1` (centres unmarked) [AVG-150], 1 to 10 µM.
On to `O=C(C1Sc2ccccc2N(Cc2nc3ccccc3o2)C1=O)N1CCCCC1` (centres unmarked) [AVG-111], for which the EC50 was over 20 µM.
The result for `O=C(CN1C(=O)C(C(=O)N2CCCCC2)Sc2ccccc21)NCC1CCCCC1` (centres unmarked) [AVG-216] reads 1 to 10 µM.
Then `Cc1cccc(NC(=O)CN2C(=O)C(C(=O)N3CCCCC3)Sc3ccccc32)c1` (centres unmarked) [AVG-053], with over 20 µM; and `CC1CCC(NC(=O)CN2C(=O)C(C(=O)N3CCCCC3)Sc3ccccc32)CC1` (centres unmarked) [AVG-049], with 1 to 10 µM; and `Cc1ccccc1NC(=O)CN1C(=O)C(C(=O)N2CCCCC2)Sc2ccccc21` (centres unmarked) [AVG-052], with 1 to 10 µM.
Then `CC(C)(C)NC(=O)CN1C(=O)C(C(=O)N2CCCCC2)Sc2ccccc21` (centres unmarked) [AVG-140], with 1 to 10 µM; and `C=C(C)c1ccc2c(c1)SC(C(=O)N1CCCCC1)C(=O)N2CC(=O)NC1CCCCC1` (centres unmarked) [AVG-215], with 1 to 10 µM; and `O=C(CN1C(=O)C(C(=O)N2CCCCC2)Sc2cc(Br)ccc21)NC1CCCCC1` (centres unmarked) [AVG-149], with 1 to 10 µM.
`O=C(CN1C(=O)C(C(=O)N2CCOCC2)Sc2ccccc21)NC1CCCCC1` (centres unmarked) [AVG-054, N-cyclohexyl-2-(2-(morpholine-4-carbonyl)-3-oxo-2H-benzo[b][1,4]thiazin-4(3H)-yl) acetamide]: the EC50 lay in the range of 1 to 10 µM.
The result for `CC(C)(NC(=O)C1Sc2ccccc2N(CC(=O)NC2CCCCC2)C1=O)c1ccccc1` (centres unmarked) [AVG-144] reads 1 to 10 µM.
Then `CN(C)C(=O)C1Sc2ccccc2N(CC(=O)NC2CCCCC2)C1=O` (centres unmarked) [AVG-057], with 1 to 10 µM; and `NC(=O)CN1C(=O)C(C(=O)N2CCCCC2)Sc2ccccc21` (centres unmarked) [AVG-113], with over 20 µM.
Then `CCc1ccc2c(c1)SC(C(=O)N1CCCCC1)C(=O)N2CC(=O)NC1CCCCC1` (centres unmarked) [AVG-152], with 1 to 10 µM; and `Cc1ccccc1NC(=O)CN1C(=O)C(C(=O)N2CCCCC2)Sc2cc(Cl)ccc21` (centres unmarked) [AVG-219], with 0.1 to 1 µM.
Consider `CC(C)(NC(=O)CN1C(=O)C(C(=O)N2CCCCC2)Sc2ccccc21)c1ccccc1` (centres unmarked) [AVG-139], for which the EC50 lay in the range of 1 to 10 µM.
The result for `O=C(CN1C(=O)C(C(=O)N2CCCCC2)Sc2ccccc21)NC1CC1` (centres unmarked) [AVG-114] reads over 20 µM; that for `O=C(C1Sc2ccccc2N(Cc2nc3ccccc3[nH]2)C1=O)N1CCCCC1` (centres unmarked) [AVG-112], 10 to 20 µM; that for `O=C(CN1C(=O)C(C(=O)NC2CCCCC2)Sc2ccccc21)NC1CCCCC1` (centres unmarked) [AVG-058], 1 to 10 µM.
The result for `CN1CCC(NC(=O)CN2C(=O)C(C(=O)N3CCCCC3)Sc3ccccc32)CC1` (centres unmarked) [AVG-047] reads over 20 µM; that for `O=C(CN1C(=O)C(C(=O)N2CCCCC2)Sc2ccccc21)NC1CCOCC1` (centres unmarked) [AVG-045], over 20 µM.
In the case of `CC(NC(=O)CN1C(=O)C(C(=O)N2CCCCC2)Sc2ccccc21)c1ccccc1` (centres unmarked) [AVG-138], the concentration giving a half-maximal response (EC50) lay within 1 to 10 µM.
The result for `CN1CCN(C(=O)C2Sc3ccccc3N(CC(=O)NC3CCCCC3)C2=O)CC1` (centres unmarked) [AVG-056] reads 10 to 20 µM; that for `O=C(CN1C(=O)C(C(=O)N2CCCCC2)Sc2cc(-c3ccccc3)ccc21)NC1CCCCC1` (centres unmarked) [AVG-154], over 20 µM; that for `O=C(CN1C(=O)C(C(=O)N2CCCCC2)Sc2ccccc21)Nc1cccnc1` (centres unmarked) [AVG-223], 10 to 20 µM.
Then `O=C(CN1C(=O)C(C(=O)N2CCCCC2)Sc2ccccc21)Nc1ccccc1Cl` (centres unmarked) [AVG-220], with 1 to 10 µM; and `O=C(CN1C(=O)C(C(=O)N2CCNCC2)Sc2ccccc21)NC1CCCCC1` (centres unmarked) [AVG-055], with over 20 µM; and `O=C(CN1C(=O)C(C(=O)N2CCCCC2)Sc2ccccc21)NCc1ccccc1` (centres unmarked) [AVG-137], with 1 to 10 µM.
The result for `COc1cccc2c1N(CC(=O)NC1CCCCC1)C(=O)C(C(=O)N1CCCCC1)S2` (centres unmarked) [AVG-148] reads 10 to 20 µM; that for `CC(C)NC(=O)C1Sc2ccccc2N(CC(=O)NC2CCCCC2)C1=O` (centres unmarked) [AVG-087], 10 to 20 µM.
`O=C(CN1C(=O)C(C(=O)N2CCCCC2)Sc2cc(C(F)(F)F)ccc21)NC1CCCCC1` (centres unmarked) [AVG-156]: the EC50 lay within 1 to 10 µM.
As for `O=C(CN1C(=O)C(C(=O)NC2CCCCC2)Sc2cc(Cl)ccc21)NC1CCCCC1` (centres unmarked) [AVG-218], the EC50 was in the range of 1 to 10 µM.
Turning to `O=C(CN1C(=O)C(C(=O)N2CCCCC2)Sc2ccc(Cl)cc21)NC1CCCCC1` (centres unmarked) [AVG-063], the EC50 was in the range of 1 to 10 µM.
The result for `O=C(CN1C(=O)C(C(=O)N2CCCCC2)Sc2cc(Cl)ccc21)NC1CCCCC1` (centres unmarked) [AVG-062] reads 0.1 to 1 µM; that for `O=C(CN1C(=O)C(C(=O)NC2CCOCC2)Sc2ccccc21)NC1CCCCC1` (centres unmarked) [AVG-083], over 20 µM.
Regarding `O=C(CN1C(=O)C(C(=O)N2CCCCC2)Sc2ccccc21)NC1CCNCC1` (centres unmarked) [AVG-046], the EC50 was over 20 µM.
Then `COc1ccccc1NC(=O)CN1C(=O)C(C(=O)N2CCCCC2)Sc2ccccc21` (centres unmarked) [AVG-221], with 1 to 10 µM; and `O=C(CN1C(=O)C(C(=O)NCc2ccccc2)Sc2ccccc21)NC1CCCCC1` (centres unmarked) [AVG-142], with 10 to 20 µM; and `O=C(CN1C(=O)C(C(=O)N2CCCCC2)Sc2ccccc21)NC1CCCC1` (centres unmarked) [AVG-051], with 1 to 10 µM.
With `O=C(CN1C(=O)C(C(=O)N2CCCCC2)Sc2cccc(Cl)c21)NC1CCCCC1` (centres unmarked) [AVG-064], the EC50 was in the range of 10 to 20 µM.
Then `COc1ccc2c(c1)SC(C(=O)N1CCCCC1)C(=O)N2CC(=O)NC1CCCCC1` (centres unmarked) [AVG-146], with 1 to 10 µM; and `O=C(CN1C(=O)C(C(=O)N2CCCCC2)Sc2ccccc21)NC1CCCCC1` (centres unmarked) [AVG-044, N-cyclohexyl-2-(3-oxo-2-(piperidine-1-carbonyl)-2H-benzo[b][1,4]thiazin-4(3H)-yl) acetamide], with 1 to 10 µM.
`CC(C)NC(=O)CN1C(=O)C(C(=O)N2CCCCC2)Sc2ccccc21` (centres unmarked) [AVG-048]: the EC50 is over 20 µM.
Consider `O=C(CN1C(=O)C(C(=O)N2CCCCC2)Sc2cnccc21)NC1CCCCC1` (centres unmarked) [AVG-155], for which the EC50 is 1 to 10 µM.
